Results as given in US20100190751A1, “NOVEL COMBINATION OF NERAMEXANE FOR TREATMENT OF NERORDEGENERATIE DISORDERS” (MERZ PHARMA GmbH & CO. KGaA, priority 2007, published 2010).

Experiments:
[1] = system: SOD1(G93A) transgenic mouse model of ALS; assay: Motor performance in the running wheel, SOD1(G93A) ALS mouse model; format: in vivo; settings: for Disease Progression (Rev's per 12 hours/day) / Half Maximum Performance / Presymptomatic Performance (Rev's per 12 hours): both gender; for Half Maximum Performance, Difference: versus vehicle control 106.1; for Presymptomatic Performance, Difference (rp 12 hours): versus vehicle control 19,518; for Disease Progression, Difference: versus vehicle control −17.862
Method: Drug treatment starts at day 45.
Memantine is supplied by MERZ pharmaceuticals. […] Drugs are dissolved in drinking water. […] Memantine is administered twice a day subcutaneously.
Consumption of drinking water is checked randomly.
4. Motor Performance in the running wheel

[2] = system: SOD1(G93A) ALS-mouse model; settings: Wang et al. 2005; cited from earlier work
[3] = system: SOD1(G93A) transgenic mouse model of ALS; settings: both gender; for Age of Disease Onset, Mean age / Age of First Paresis, Mean age / Disease Endstage - Survival, Mean age: treatment from day 45; for Age of Disease Onset, Mean age: riluzole 35 mg/kg day and neramexane (dosage adapted to gender, 50 male/150 female) in drinking water, memantine 20 mg/kg day s.c.; for Age of First Paresis, Mean age / Disease Endstage - Survival, Mean age: same doses as Table 1; for Age of Disease Onset, Difference compared to control: versus vehicle control mean 106.6; for Age of First Paresis, Difference compared to control: versus vehicle control mean 119.7; for Disease Endstage - Survival, Difference compared to control: versus vehicle control mean […]

SMILES | Disease Progression (Rev's per 12 hours/day) [1] [Rev's per 12 hours/day] | Half Maximum Performance [1] [days] | Presymptomatic Performance (Rev's per 12 hours) [1] | Half Maximum Performance, Difference [1] [days] | Presymptomatic Performance, Difference (rp 12 hours) [1] | Disease Progression, Difference [1] | Effects regarding disease progression and survival [2] | Age of Disease Onset, Median age [3] [days] | Age of First Paresis, Median age [3] [days] | Disease Endstage - Survival, Median age [3] [days] | Age of Disease Onset, Mean age [3] [days] | Age of First Paresis, Mean age [3] [days] | Disease Endstage - Survival, Mean age [3] [days] | Age of Disease Onset, Difference compared to control [3] [days] | Age of First Paresis, Difference compared to control [3] [days] | Disease Endstage - Survival, Difference compared to control [3] [days]
CC12CC3CC(C)(C1)CC(N)(C3)C2 [Memantine] | −22.528 | 110.5 | 10,784 Rev's per 12 hours | 4.4 | −8,734 rp 12 hours | −4.666 | positive effects | 107.5 | 123.0 | 134.0 | 108.5 | 123.7 | 134.4 | 1.9 | 4.0 | 5.1
CC1(C)CC(C)(C)CC(C)(N)C1 [Neramexane, 1-amino-1,3,3,5,5-pentamethylcyclohexane] | −16.108 | 109.2 | 21,096 Rev's per 12 hours | 3.1 | 1,578 rp 12 hours | 1.754 |  | 107.0 | 124.0 | 135.0 | 107.8 | 123.7 | 135.1 | 1.2 | 4.0 | 5.8
Nc1nc2ccc(OC(F)(F)F)cc2s1 [Riluzole, 2-amino-6-trifluromethoxybenzothiazole] | −14.015 |  | 20,565 Rev's per 12 hours |  | 1,047 rp 12 hours | 3.847 |  | 105.0 | 119.0 |  | 106.3 | 120.0 |  | -0.3 | 0.3 | 
